In series [1] the test system is healthy female subjects aged 18-35 years. The series is described as follows: Inhibition of ovulation / ovarian activity by Hoogland score, phase 2 clinical trial. It counts as in vivo, human. Particulars: 75 μg/day of levonorgestrel, vaginal. The method, then:
The study consists of 4 phases: • Screening phase (minimum of 4 weeks and maximum of 8 weeks if washout cycle was needed). • Pre-treatment cycle (28 days) and randomization. • Treatment cycle consisting of 56 treatment days (2 cycles, 28 days per cycle). • Post-treatment cycle (28 days).
The inhibition of ovulation was determined by the calculation of the Hoogland Score, which combined the measurement of follicle size in mm by TVU and progesterone/estradiol serum concentration in nmol/L (in case an ovulation was suspected sonographically in TC1 or TC2, it was confirmed by blood progesterone levels and reflected by Landgren Score).
Primary endpoint analysis: the inhibition of ovulation (Yes, No), was analyzed through a logistic regression model to compare inhibition of ovulation across treatment groups in which BMI was included as covariate. Adjusted odds ratios (ORs) with their two-sided 95% CI were calculated. No hypothesis testing was performed.

For series [2] the test system is unchanged. In words: Return of ovulation in post-treatment cycle. In kind it is in vivo, human. Particulars: FAS; 28-day post-treatment cycle.
The conditions of series [3]: oral administration; cited from earlier work.
Series [4] relates to women. As to conditions: POP; desogestrel 0.075 mg, LNG 0.030 mg; cited from earlier work.

The structures appear in SMILES notation.

Regarding `C#C[C@]1(O)CC[C@H]2[C@@H]3CCC4=CC(=O)CC[C@@H]4[C@H]3CC[C@@]21CC` [levonorgestrel], in series [1], the Ovulation inhibition is on record as 100%. For the same compound, the “Participants with return of ovulation during post-treatment, %” value in series [2] is given as “more than 80%”. Also, in series [3], the Bioavailability is approximately 100%.

As for `C#C[C@]1(O)CC[C@H]2[C@@H]3CCC4=CCCC[C@@H]4[C@H]3C(=C)C[C@@]21CC` [desogestrel], in series [4], the “Cycles with ovulation inhibited” value was “at least 98%”.
